{"source": "paper PMC6791878", "about": "“Evaluation of integrin αvβ6 cystine knot PET tracers to detect cancer and idiopathic pulmonary fibrosis” (Nature Communications, 2019)", "key": {"[1]": {"test_system": "pancreatic cancer", "test": "[18F]FP-R01-MG-F2 vs [18F]FDG PET/CT in a pancreatic cancer patient (Stanford)", "details": "one patient", "method": "The line was flushed with at least 10 ml normal saline after injection. • Blood samples for blood time activity measurements were taken at 1, 3, 5, and 10 min after tracer administration and then at 30-minute intervals for up to 3 h after tracer injection. The counts in whole blood and plasma were measured by gamma counter (Perkin Elmer Wizard 1470). […] The scan was performed over the abdominal region to include the pancreas. Attenuation correction was employed via CT (120 kV, 10 mA). […] The scan was performed over the chest region. Attenuation correction was employed via CT (120 kV, 10 mA). • Static total-body (vertex-to-toe) PET/CT scans were acquired at 60 min and 120 min post injection. CT was performed at 120 kV; it was dose-modulated based on body habitus with current ranging from 10-105 mA for the 60-minute scan. […] EKG data was analyzed to assess changes in overall rhythm of the heart. • On the day of the study, participants were asked to void frequently to reduce radiation exposure. Urine samples were collected at prior to tracer administration (baseline), prior to the static PE scans, at the end of the study day 1, and at the follow up visits 1 day and 7 days after tracer administration.\nUpon co-registration of the PET and CT images, the CT images were used to determine regions of interest for the organs or tissues reported in the manuscript. These ROIs were applied to the PET images of the brain, pituitary gland, breast, lower and upper large intestine, small intestine, stomach, pancreas, heart wall, liver, lung, muscle, red marrow, bone, skin, and thyroid gland. For high uptake organs such as the kidneys, bladder and for the whole body, threshold-based segmentation of PET images were used to determine a close-fitting ROI around the entire organ or whole body. In order to determine accuracy, these PET-derived ROIs were compared to the CT overlay for a close match."}, "[2]": {"test_system": "cervical cancer", "test": "[18F]FDG PET/CT (PUMC Hospital)", "assay_type": "in vivo, human", "details": "second cervical cancer patient", "method": "All patients were instructed to avoid strenuous work or exercise for at least 24 h prior to the scheduled study date. Study participants were also instructed to fast for at least 4 h before intravenous administration of the PET tracer. Patients were administered [^18F]FDG at a dosage of 5.55 MBq (0.15 mCi) per kilogram body weight. Immediately after tracer administration, patients were allowed to rest and relax in a warm, darkened room for approximately 45–60 min. Next, each patient emptied their bladder. The PET scan that followed spanned a region from the mid-thigh area to the base of the skull (six bed positions, 2 min bed^−1)."}}, "note": "Values joined by “and” are separate entries in the source; they are usually repeats but may differ in a detail not shown here. Equal entries are not always repeated."}
{"compound": "OC[C@H]1OC(O)[C@H]([18F])[C@@H](O)[C@@H]1O", "note": "(some centres unmarked) [[^18F]FDG, reference compound]", "values": [{"measurement": "SUVmean, liver", "setting": "[1]; 1 h p.i.", "value": 2.9}, {"measurement": "SUVmean, small intestines", "setting": "[1]; 1 h p.i.", "value": 2.5}, {"measurement": "SUVmean, stomach", "setting": "[1]; 1 h p.i.", "value": 0.16}, {"measurement": "SUVmean, pancreatic tumor", "setting": "[1]; ~1 h p.i.", "value": "4.1 and ~ 4"}, {"measurement": "SUVmean, cervical tumor", "setting": "[2]", "value": 4.1}]}
